Test results: patent publication US12285012B2, “Compositions comprising pyridine carboxylate herbicides with acetolactate synthase (ALS) inhibitor herbicides” (Corteva Agriscience LLC, priority 2018, dated 2025)
Where “and” joins values, the source holds several entries; their conditions need not be identical. Identical values can stand only once. Like-named read-outs stand apart in the source and are kept apart here.

What was measured:
[1] = test system: spring wheat (TRZAS); format: in vivo, Triticum aestivum; conditions: for % visual injury Obs-Exp: Pyroxsulam 0
In short: (§1)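 Injury was rated visually after 20-22 d on a 0 (none) to 100% (complete kill) scale relative to solvent-sprayed controls, with sub-irrigation to avoid wash-off. Rates were given in g ae/ha or g ai/ha depending on component.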

[2] = test system: Russian thistle (SASKR, Salsola kali); assay: Greenhouse postemergence herbicidal effect; format: in vivo
In short: as §1

[3] = test system: pineapple weed (MATMT, Matricaria discoidea); assay: Greenhouse postemergence herbicidal effect; format: in vivo
In short: as §1

[4] = test system: wild pansy (VIOTR, Viola tricolor); assay: Greenhouse postemergence herbicidal effect; format: in vivo
In short: as §1

[5] = test system: winter rape (BRSNW, Brassica napus); assay: Greenhouse postemergence herbicidal effect; format: in vivo
In short: as §1

[6] = test system: pigweed (AMARE, Amaranthus retroflexus); assay: Greenhouse postemergence herbicidal effect; format: in vivo
In short: as §1

[7] = test system: chickweed (STEME, Stellaria media); assay: Greenhouse postemergence herbicidal effect; format: in vivo
In short: as §1

[8] = test system: wild chamomile (MATCH, Matricaria chamomilla); assay: Greenhouse postemergence herbicidal effect; format: in vivo
In short: as §1

[9] = test system: Canadian thistle (CIRAR, Cirsium arvense); assay: Greenhouse postemergence herbicidal effect; format: in vivo
In short: as §1

[10] = test system: kochia (KCHSC, Kochia scoparia); assay: Greenhouse postemergence herbicidal effect; format: in vivo
In short: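 Plants at the second or third true leaf stage received overhead spray at 187 L/ha, with the pyridine carboxylate (plus cloquintocet-mexyl safener) alone or with ALS herbicides in 1.25% v/v crop oil. Rates are in g ae/ha or g ai/ha. Visual injury versus solvent-blank controls was scored 0–100% after 20-22 d in the greenhouse.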

[11] = test system: common lambsquarters (CHEAL, Chenopodium album L.); assay: Greenhouse postemergence herbicidal effect; format: in vivo
[12] = Compound A 10 g/ha (Examples 62-63)
[13] = Compound A 10 g/ha, safener mefenpyr-diethyl

Compound: N#CCOC(=O)c1nc(-c2ccc3cc[nH]c3c2F)c(F)c(N)c1Cl [Compound A, cyanomethyl 4-amino-3-chloro-5-fluoro-6-(7-fluoro-1H-indol-6-yl)pyridine-2-carboxylate]
- % visual injury, Obs ([1]; 10 g/ha): 0%
- % visual injury ([1]; Compound A 10 g/ha): 0% and 3%
- % visual injury Obs ([1]; Compound A 10 g/ha): 0%
- % visual injury, Obs ([1]; Compound A 10 g/ha): 0%
- TRZAS % visual injury Obs [1, 12]: 0%
- % visual injury, Obs [1, 13]: 3%
- TRZAS % visual injury Obs [1, 13]: 3%
- % visual injury ([1]; Compound A 15 g/ha): 0%
- % visual injury Obs ([1]; Compound A 15 g/ha): 0%
- % visual injury, Obs ([1]; TRZAS, Compound A 10 g/ha): 0%
- Obs % visual injury ([1]; TRZAS, Compound A 10 g/ha): 0%
- Obs % visual injury ([1]; TRZAS, Compound A 10 g/ha (Table 65)): 0%
- Obs % visual injury ([1]; TRZAS, Compound A 10 g/ha (Table 66)): 0%
- Obs % visual injury ([1]; TRZAS, Compound A 10 g/ha (Table 67)): 3%
- % visual injury, Obs ([1]; TRZAS, Compound A 15 g/ha): 0%
- Obs % visual injury ([1]; TRZAS, Compound A 15 g/ha): 0%
- Obs % visual injury ([1]; TRZAS, Compound A 15 g/ha (Table 67)): 0%
- % visual injury Obs-Exp ([1]; printed under Compound A 10 g/ha): 0%
- % visual injury Obs-Exp ([1]; printed under Compound A 15 g/ha): 0%
- % visual injury, Obs ([2]; 10 g/ha): 60% and 63%
- % visual injury ([2]; Compound A 10 g/ha): 70% and 63%
- % visual injury Obs ([2]; Compound A 10 g/ha): 60% and 63%
- % visual injury, Obs ([2]; Compound A 10 g/ha): 65%
- SASKR % visual injury Obs [2, 12]: 65%
- % visual injury ([2]; Compound A 15 g/ha): 75%
- % visual injury, Obs ([2]; SASKR, Compound A 10 g/ha): 60%
- Obs % visual injury ([2]; SASKR, Compound A 10 g/ha): 63% and 65%
- Obs % visual injury ([2]; SASKR, Compound A 10 g/ha (Table 65)): 65%
- Obs % visual injury ([2]; SASKR, Compound A 10 g/ha (Table 67)): 58%
- Obs % visual injury ([2]; SASKR, Compound A 15 g/ha (Table 67)): 65%
- % visual injury ([3]; Compound A 10 g/ha): 15%
- % visual injury ([3]; Compound A 15 g/ha): 30%
- % visual injury, Obs ([4]; 10 g/ha): 23%
- % visual injury ([4]; Compound A 10 g/ha): 10%
- % visual injury, Obs [4, 13]: 18%
- VIOTR % visual injury Obs [4, 13]: 18%
- % visual injury ([4]; Compound A 15 g/ha): 10%
- % visual injury, Obs ([5]; 10 g/ha): 68%
- % visual injury, Obs ([5]; BRSNW, Compound A 10 g/ha): 45%
- Obs % visual injury ([5]; BRSNW, Compound A 10 g/ha): 45% and 40%
- Obs % visual injury ([5]; BRSNW, Compound A 10 g/ha (Table 66)): 68%
- Obs % visual injury ([5]; BRSNW, Compound A 10 g/ha (Table 67)): 60%
- % visual injury, Obs ([5]; BRSNW, Compound A 15 g/ha): 73%
- Obs % visual injury ([5]; BRSNW, Compound A 15 g/ha): 73%
- Obs % visual injury ([5]; BRSNW, Compound A 15 g/ha (Table 67)): 75%
- % visual injury ([5]; Compound A 10 g/ha): 75% and 43% and 68% and 45%
- % visual injury Obs ([5]; Compound A 10 g/ha): 45% and 40%
- % visual injury ([5]; Compound A 15 g/ha): 75% and 73%
- % visual injury Obs ([5]; Compound A 15 g/ha): 73%
- % visual injury, Obs ([6]; 10 g/ha): 90%
- % visual injury, Obs ([6]; AMARE, Compound A 10 g/ha): 75%
- Obs % visual injury ([6]; AMARE, Compound A 10 g/ha): 75% and 85% and 100%
- Obs % visual injury ([6]; AMARE, Compound A 10 g/ha (Table 65)): 100%
- Obs % visual injury ([6]; AMARE, Compound A 10 g/ha (Table 66)): 90%
- Obs % visual injury ([6]; AMARE, Compound A 10 g/ha (Table 67)): 78%
- % visual injury, Obs ([6]; AMARE, Compound A 15 g/ha): 80%
- Obs % visual injury ([6]; AMARE, Compound A 15 g/ha): 80%
- Obs % visual injury ([6]; AMARE, Compound A 15 g/ha (Table 67)): 83%
- % visual injury ([6]; Compound A 10 g/ha): 73% and 90% and 75%
- % visual injury Obs ([6]; Compound A 10 g/ha): 75% and 100% and 85%
- % visual injury, Obs ([6]; Compound A 10 g/ha): 100%
- AMARE % visual injury Obs [6, 12]: 100%
- % visual injury, Obs [6, 13]: 98%
- AMARE % visual injury Obs [6, 13]: 98%
- % visual injury ([6]; Compound A 15 g/ha): 80%
- % visual injury Obs ([6]; Compound A 15 g/ha): 80%
- % visual injury ([7]; Compound A 10 g/ha): 100%
- % visual injury, Obs [7, 13]: 83%
- STEME % visual injury Obs [7, 13]: 83%
- % visual injury ([7]; Compound A 15 g/ha): 100%
- % visual injury ([8]; Compound A 10 g/ha): 40% and 30% and 45%
- % visual injury, Obs ([8]; Compound A 10 g/ha): 13%
- MATCH % visual injury Obs [8, 12]: 13%
- % visual injury ([8]; Compound A 15 g/ha): 50% and 45%
- % visual injury Obs ([8]; Compound A 15 g/ha): 45%
- Obs % visual injury ([8]; MATCH, Compound A 10 g/ha (Table 65)): 13%
- Obs % visual injury ([8]; MATCH, Compound A 10 g/ha (Table 66)): 30%
- Obs % visual injury ([8]; MATCH, Compound A 10 g/ha (Table 67)): 15%
- % visual injury, Obs ([8]; MATCH, Compound A 15 g/ha): 45%
- Obs % visual injury ([8]; MATCH, Compound A 15 g/ha): 45%
- Obs % visual injury ([8]; MATCH, Compound A 15 g/ha (Table 67)): 10%
- Obs % visual injury ([9]; CIRAR, Compound A 10 g/ha (Table 65)): 20%
- Obs % visual injury ([9]; CIRAR, Compound A 10 g/ha (Table 66)): 30%
- Obs % visual injury ([9]; CIRAR, Compound A 15 g/ha): 55%
- pest or weed control at 10 g/ha ([9]; Cirsium arvense, post-emergence, 10 g/ha, read-out: % visual injury, Obs): 43%
- pest or weed control at 10 g/ha ([9]; Cirsium arvense, post-emergence, CIRAR, Compound A 10 g/ha, read-out: % visual injury, Obs): 33%
- pest or weed control at 15 g/ha ([9]; Cirsium arvense, post-emergence, CIRAR, Compound A 15 g/ha, read-out: % visual injury, Obs): 55%
- pest or weed control at 10 g/ha ([9]; Cirsium arvense, post-emergence, Compound A 10 g/ha, read-out: % visual injury, Obs): 20%
- pest or weed control at 10 g/ha ([9]; Cirsium arvense, post-emergence, Compound A 10 g/ha, safener mefenpyr-diethyl, read-out: % visual injury, Obs): 43%
- % visual injury ([9]; Compound A 10 g/ha): 40% and 60% and 30% and 33%
- % visual injury Obs ([9]; Compound A 10 g/ha): 33% and 55%
- CIRAR % visual injury Obs [9, 12]: 20%
- CIRAR % visual injury Obs [9, 13]: 43%
- % visual injury ([9]; Compound A 15 g/ha): 65% and 55%
- % visual injury Obs ([9]; Compound A 15 g/ha): 55%
- pest or weed control at 10 g/ha ([10]; Bassia scoparia, post-emergence, 10 g/ha, read-out: % visual injury, Obs): 68%
- pest or weed control at 10 g/ha ([10]; Bassia scoparia, post-emergence, Compound A 10 g/ha, read-out: % visual injury, Obs): 65%
- pest or weed control at 10 g/ha ([10]; Bassia scoparia, post-emergence, Compound A 10 g/ha, safener mefenpyr-diethyl, read-out: % visual injury, Obs): 70%
- pest or weed control at 10 g/ha ([10]; Bassia scoparia, post-emergence, KCHSC, Compound A 10 g/ha, read-out: % visual injury, Obs): 68%
- pest or weed control at 15 g/ha ([10]; Bassia scoparia, post-emergence, KCHSC, Compound A 15 g/ha, read-out: % visual injury, Obs): 68%
- % visual injury ([10]; Compound A 10 g/ha): 75% and 63% and 70% and 68%
- % visual injury Obs ([10]; Compound A 10 g/ha): 68% and 58% and 70%
- KCHSC % visual injury Obs [10, 12]: 65%
- KCHSC % visual injury Obs [10, 13]: 70%
- % visual injury ([10]; Compound A 15 g/ha): 75% and 68%
- % visual injury Obs ([10]; Compound A 15 g/ha): 68%
- Obs % visual injury ([10]; KCHSC, Compound A 10 g/ha): 68% and 70% and 65%
- Obs % visual injury ([10]; KCHSC, Compound A 10 g/ha (Table 65)): 65%
- Obs % visual injury ([10]; KCHSC, Compound A 10 g/ha (Table 66)): 70%
- Obs % visual injury ([10]; KCHSC, Compound A 10 g/ha (Table 67)): 70%
- Obs % visual injury ([10]; KCHSC, Compound A 15 g/ha): 68%
- Obs % visual injury ([10]; KCHSC, Compound A 15 g/ha (Table 67)): 70%
- % visual injury, Obs ([11]; 10 g/ha): 83% and 90% and 78%
- % visual injury, Obs ([11]; CHEAL, Compound A 10 g/ha): 78% and 83%
- Obs % visual injury ([11]; CHEAL, Compound A 10 g/ha): 78% and 80% and 88%
- Obs % visual injury ([11]; CHEAL, Compound A 10 g/ha (Table 65)): 88%
- Obs % visual injury ([11]; CHEAL, Compound A 10 g/ha (Table 66)): 78%
- Obs % visual injury ([11]; CHEAL, Compound A 10 g/ha (Table 67)): 78%
- % visual injury, Obs ([11]; CHEAL, Compound A 15 g/ha): 85%
- Obs % visual injury ([11]; CHEAL, Compound A 15 g/ha): 85%
- Obs % visual injury ([11]; CHEAL, Compound A 15 g/ha (Table 67)): 83%
- % visual injury ([11]; Compound A 10 g/ha): 93% and 78%
- % visual injury Obs ([11]; Compound A 10 g/ha): 78% and 83% and 80%
- % visual injury, Obs ([11]; Compound A 10 g/ha): 88%
- CHEAL % visual injury Obs [11, 12]: 88%
- % visual injury, Obs [11, 13]: 100%
- CHEAL % visual injury Obs [11, 13]: 100%
- % visual injury ([11]; Compound A 15 g/ha): 85%
- % visual injury Obs ([11]; Compound A 15 g/ha): 85%
